According to patent publication US7074789B2, “Kinase inhibitors” (Amgen Inc., priority 1999, dated 2006):

Legend:
Type in all cases: biochemical
EGFR = target: T1, EGFR (Homo sapiens, UniProt P00533); test: Kinase inhibition assay (33P transfer), EGFR; details: Table 2, kinase inhibition class; read-out: EGFR-1
T1 construct: Kinases are expressed as either kinase domains or full length constructs; made in house
Outline: (§1)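 Using immobilised substrate copolymers (poly(Glu,Tyr) 4:1; poly(Arg,Ser) 3:1) and [33P]ATP, purified fusion kinases were allowed to react; plates were then rinsed in 0.5% phosphoric acid and counted in a scintillation detector. Half-maximal inhibition of label transfer defines IC50.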

FGFR1 = target: T2, FGFR1 (Homo sapiens, UniProt P11362); test: Kinase inhibition assay (33P transfer), FGFR1; details: read-out: FGFR1-1
T2 construct: Kinases are expressed as either kinase domains or full length constructs; made in house

Zap-70 = target: T3, Zap-70 (Homo sapiens, UniProt P43403); test: Kinase inhibition assay (33P transfer), Zap-70; details: read-out: Zap-1
T3 construct: Kinases are expressed as either kinase domains or full length constructs; made in house
T3 sequence (P43403 1-619): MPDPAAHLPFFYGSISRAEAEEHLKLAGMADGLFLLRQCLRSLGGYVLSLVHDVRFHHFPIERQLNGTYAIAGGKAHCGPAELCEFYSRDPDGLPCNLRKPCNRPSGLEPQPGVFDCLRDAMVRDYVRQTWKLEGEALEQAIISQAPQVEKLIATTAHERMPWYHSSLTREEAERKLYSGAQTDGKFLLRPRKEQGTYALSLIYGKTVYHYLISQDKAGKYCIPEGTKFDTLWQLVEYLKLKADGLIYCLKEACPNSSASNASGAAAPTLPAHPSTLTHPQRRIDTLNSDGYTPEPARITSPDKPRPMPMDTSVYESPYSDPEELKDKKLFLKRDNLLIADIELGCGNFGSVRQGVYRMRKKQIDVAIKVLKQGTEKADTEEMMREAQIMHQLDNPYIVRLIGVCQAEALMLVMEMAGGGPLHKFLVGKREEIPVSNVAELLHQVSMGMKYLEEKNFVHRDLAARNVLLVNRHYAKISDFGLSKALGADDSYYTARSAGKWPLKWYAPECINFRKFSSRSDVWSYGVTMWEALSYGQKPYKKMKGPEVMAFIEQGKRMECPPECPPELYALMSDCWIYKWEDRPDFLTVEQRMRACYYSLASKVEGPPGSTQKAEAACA
Outline: (§2)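 Liquid scintillation counting of 33P on plate-bound synthetic substrates gives kinase activity. Plates are washed in 0.5% phosphoric acid first; kinases are tagged recombinant proteins from E. coli or baculovirus-infected High Five cells.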

Flt-1 = target: T4, Flt-1 (Homo sapiens, UniProt P17948); test: Kinase inhibition assay (33P transfer), Flt-1
T4 construct: Kinases are expressed as either kinase domains or full length constructs; made in house
Outline: as §1

Ret-1 = target: T5, Ret-1 (Homo sapiens, UniProt P07949); test: Kinase inhibition assay (33P transfer), Ret; details: Table 6, Ret-1 kinase inhibition class
T5 construct: Kinases are expressed as either kinase domains or full length constructs; made in house
T5 sequence (P07949 29-1114): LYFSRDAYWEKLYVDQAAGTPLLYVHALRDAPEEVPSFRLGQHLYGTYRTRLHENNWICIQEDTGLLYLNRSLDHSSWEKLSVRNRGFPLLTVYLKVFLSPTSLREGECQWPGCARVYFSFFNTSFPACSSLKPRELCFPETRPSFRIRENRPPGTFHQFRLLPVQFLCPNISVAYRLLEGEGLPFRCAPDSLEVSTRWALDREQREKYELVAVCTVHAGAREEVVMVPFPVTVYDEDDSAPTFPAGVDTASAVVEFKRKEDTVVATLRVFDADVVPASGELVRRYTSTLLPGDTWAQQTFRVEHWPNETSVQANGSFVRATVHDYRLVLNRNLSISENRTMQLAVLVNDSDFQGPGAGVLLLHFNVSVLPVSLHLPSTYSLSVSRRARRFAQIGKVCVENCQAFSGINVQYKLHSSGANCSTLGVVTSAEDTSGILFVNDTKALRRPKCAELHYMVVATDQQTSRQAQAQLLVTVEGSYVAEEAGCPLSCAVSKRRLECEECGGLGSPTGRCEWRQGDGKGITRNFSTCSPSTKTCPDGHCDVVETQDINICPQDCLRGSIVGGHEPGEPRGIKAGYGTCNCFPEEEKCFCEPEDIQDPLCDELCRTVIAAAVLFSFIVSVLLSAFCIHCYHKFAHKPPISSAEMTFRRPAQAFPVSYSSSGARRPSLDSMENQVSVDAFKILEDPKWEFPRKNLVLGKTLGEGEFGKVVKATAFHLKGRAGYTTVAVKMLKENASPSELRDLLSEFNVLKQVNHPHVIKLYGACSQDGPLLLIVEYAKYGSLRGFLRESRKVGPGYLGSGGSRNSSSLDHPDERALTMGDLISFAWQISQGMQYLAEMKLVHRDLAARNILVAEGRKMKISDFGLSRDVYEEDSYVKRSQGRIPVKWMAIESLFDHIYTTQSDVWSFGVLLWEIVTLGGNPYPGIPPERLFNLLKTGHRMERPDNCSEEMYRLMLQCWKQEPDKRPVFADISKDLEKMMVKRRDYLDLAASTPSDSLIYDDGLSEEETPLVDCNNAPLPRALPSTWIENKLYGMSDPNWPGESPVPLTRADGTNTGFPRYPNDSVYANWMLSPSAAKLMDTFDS

Lyn = target: T6, Lyn (Homo sapiens, UniProt P07948); test: Kinase inhibition assay (33P transfer), Lyn; details: Table 6, Lyn-1 kinase inhibition class
T6 construct: Kinases are expressed as either kinase domains or full length constructs; made in house
T6 sequence (P07948 whole entry, species assumed, the tested form may be a part): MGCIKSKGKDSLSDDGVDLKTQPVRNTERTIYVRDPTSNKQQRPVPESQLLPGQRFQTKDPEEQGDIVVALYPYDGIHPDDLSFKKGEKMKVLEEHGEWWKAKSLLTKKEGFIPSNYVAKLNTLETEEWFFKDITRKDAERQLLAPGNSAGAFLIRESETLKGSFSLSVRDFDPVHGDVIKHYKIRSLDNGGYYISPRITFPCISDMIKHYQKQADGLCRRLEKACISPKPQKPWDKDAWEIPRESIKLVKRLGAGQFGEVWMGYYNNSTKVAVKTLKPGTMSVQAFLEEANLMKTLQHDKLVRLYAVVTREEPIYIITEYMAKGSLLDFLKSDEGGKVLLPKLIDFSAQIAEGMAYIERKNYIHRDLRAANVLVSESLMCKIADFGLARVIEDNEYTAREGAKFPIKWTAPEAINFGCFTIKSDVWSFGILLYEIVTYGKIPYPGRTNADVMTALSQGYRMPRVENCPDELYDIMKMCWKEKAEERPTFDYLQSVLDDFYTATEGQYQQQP
Outline: as §1

Src = target: T7, Src (Homo sapiens, UniProt P12931); test: Kinase inhibition assay (33P transfer), Src; details: Table 6, Src-1 kinase inhibition class
T7 construct: Kinases are expressed as either kinase domains or full length constructs; made in house
Outline: as §1

Fyn = target: T8, Fyn (Homo sapiens, UniProt P06241); test: Kinase inhibition assay (33P transfer), Fyn; details: read-out: Fyn-1
T8 construct: Kinases are expressed as either kinase domains or full length constructs; made in house
Outline: as §1

Kdr = target: T9, Kdr (Homo sapiens, UniProt P35968); test: Kinase inhibition assay (33P transfer), Kdr; details: read-out: KDR-1
T9 construct: Kinases are expressed as either kinase domains or full length constructs; made in house
Outline: as §2

IGFR-1 = target: T10, IGFR-1 (Homo sapiens, UniProt P08069); test: Kinase inhibition assay, IGFR-1 (Table 2); details: Table 2, kinase inhibition class
T10 construct: Kinases are expressed as either kinase domains or full length constructs; made in house

c-Met = target: T11, c-Met (Homo sapiens, UniProt P08581); test: Kinase inhibition assay (33P transfer), c-Met; details: Table 2, kinase inhibition class; read-out: Met-1
T11 construct: Kinases are expressed as either kinase domains or full length constructs; made in house
T11 sequence (P08581 25-1390): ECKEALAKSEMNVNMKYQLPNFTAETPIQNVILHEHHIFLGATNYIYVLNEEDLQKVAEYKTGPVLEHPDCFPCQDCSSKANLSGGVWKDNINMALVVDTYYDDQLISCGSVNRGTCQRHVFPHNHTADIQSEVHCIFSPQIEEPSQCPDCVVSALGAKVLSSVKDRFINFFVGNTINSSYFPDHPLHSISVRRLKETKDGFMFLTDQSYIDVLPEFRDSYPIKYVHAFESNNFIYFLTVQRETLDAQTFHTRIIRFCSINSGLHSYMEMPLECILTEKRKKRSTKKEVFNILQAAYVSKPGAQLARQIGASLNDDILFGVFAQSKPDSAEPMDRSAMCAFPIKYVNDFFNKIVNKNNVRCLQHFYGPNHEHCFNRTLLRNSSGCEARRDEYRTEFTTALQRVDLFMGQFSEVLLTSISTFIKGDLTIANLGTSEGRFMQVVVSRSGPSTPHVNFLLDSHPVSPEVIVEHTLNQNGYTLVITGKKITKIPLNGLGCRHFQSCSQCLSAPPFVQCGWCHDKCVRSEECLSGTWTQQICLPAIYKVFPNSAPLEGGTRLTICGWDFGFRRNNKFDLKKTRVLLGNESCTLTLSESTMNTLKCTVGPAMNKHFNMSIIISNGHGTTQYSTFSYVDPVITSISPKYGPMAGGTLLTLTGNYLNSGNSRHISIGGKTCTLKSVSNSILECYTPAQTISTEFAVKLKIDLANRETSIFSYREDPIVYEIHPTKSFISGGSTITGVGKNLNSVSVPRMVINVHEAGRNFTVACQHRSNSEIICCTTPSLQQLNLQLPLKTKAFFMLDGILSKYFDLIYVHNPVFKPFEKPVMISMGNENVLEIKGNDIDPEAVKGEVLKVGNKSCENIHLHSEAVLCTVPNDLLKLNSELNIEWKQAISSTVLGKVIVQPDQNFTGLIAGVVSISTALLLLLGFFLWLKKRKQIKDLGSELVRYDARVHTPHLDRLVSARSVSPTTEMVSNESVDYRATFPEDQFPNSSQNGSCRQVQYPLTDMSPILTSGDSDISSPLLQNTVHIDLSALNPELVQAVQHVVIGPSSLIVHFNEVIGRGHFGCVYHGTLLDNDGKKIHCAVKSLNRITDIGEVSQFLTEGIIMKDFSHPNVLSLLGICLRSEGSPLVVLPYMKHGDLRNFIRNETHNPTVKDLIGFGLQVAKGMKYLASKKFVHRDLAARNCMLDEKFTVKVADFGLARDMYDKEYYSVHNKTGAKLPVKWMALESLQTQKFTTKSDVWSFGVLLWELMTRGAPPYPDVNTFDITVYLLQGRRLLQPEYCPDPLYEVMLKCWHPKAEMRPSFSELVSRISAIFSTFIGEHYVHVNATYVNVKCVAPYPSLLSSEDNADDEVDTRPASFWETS
Outline: as §1

ErbB2 = target: T12, ErbB2 (Homo sapiens, UniProt P04626); test: Kinase inhibition assay (33P transfer), ErbB2; details: read-out: ErbB2-2
T12 construct: Kinases are expressed as either kinase domains or full length constructs; made in house
Outline: as §1

PDGFRB = target: T13, PDGFRB (Homo sapiens, UniProt P09619); test: Kinase inhibition assay (33P transfer), PDGFRB; details: read-out: PDGFRB-1
T13 construct: Kinases are expressed as either kinase domains or full length constructs; made in house
T13 sequence (P09619 33-1106, species assumed): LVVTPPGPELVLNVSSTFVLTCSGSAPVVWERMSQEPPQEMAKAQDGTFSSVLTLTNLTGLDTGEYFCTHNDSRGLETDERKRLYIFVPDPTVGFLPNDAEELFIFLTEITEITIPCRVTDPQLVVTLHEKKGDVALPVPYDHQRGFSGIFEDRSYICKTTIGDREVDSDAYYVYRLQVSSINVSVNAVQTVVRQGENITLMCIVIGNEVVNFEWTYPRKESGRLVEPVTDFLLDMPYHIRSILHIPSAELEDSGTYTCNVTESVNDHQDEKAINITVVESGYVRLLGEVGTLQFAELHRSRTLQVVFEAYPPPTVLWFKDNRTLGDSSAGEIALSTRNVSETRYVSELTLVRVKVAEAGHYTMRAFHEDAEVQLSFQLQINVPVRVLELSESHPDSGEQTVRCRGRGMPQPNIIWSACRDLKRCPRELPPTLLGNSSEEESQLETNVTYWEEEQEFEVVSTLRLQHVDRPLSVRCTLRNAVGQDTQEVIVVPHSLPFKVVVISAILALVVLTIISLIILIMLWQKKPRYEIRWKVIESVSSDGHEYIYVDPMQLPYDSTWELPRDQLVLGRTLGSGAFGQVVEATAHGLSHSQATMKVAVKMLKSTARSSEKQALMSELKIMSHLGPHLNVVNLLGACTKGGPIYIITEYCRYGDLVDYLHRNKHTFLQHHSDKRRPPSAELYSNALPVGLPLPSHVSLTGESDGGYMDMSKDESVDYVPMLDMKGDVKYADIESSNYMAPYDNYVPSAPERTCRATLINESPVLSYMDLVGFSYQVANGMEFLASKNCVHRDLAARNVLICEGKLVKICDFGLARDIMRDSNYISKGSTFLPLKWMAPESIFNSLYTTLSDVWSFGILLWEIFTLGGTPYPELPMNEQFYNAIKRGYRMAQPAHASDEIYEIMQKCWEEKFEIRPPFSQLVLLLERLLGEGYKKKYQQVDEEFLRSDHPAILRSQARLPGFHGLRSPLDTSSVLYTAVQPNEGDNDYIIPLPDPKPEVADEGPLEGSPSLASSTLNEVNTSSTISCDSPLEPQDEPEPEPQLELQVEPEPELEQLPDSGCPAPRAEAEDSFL

Hck-1 = target: T14, Hck-1 (Homo sapiens, UniProt P08631); test: Kinase inhibition assay (33P transfer), Hck; details: Table 6, Hck-1 kinase inhibition class
T14 construct: Kinases are expressed as either kinase domains or full length constructs; made in house
T14 sequence (P08631 whole entry, the tested form may be a part): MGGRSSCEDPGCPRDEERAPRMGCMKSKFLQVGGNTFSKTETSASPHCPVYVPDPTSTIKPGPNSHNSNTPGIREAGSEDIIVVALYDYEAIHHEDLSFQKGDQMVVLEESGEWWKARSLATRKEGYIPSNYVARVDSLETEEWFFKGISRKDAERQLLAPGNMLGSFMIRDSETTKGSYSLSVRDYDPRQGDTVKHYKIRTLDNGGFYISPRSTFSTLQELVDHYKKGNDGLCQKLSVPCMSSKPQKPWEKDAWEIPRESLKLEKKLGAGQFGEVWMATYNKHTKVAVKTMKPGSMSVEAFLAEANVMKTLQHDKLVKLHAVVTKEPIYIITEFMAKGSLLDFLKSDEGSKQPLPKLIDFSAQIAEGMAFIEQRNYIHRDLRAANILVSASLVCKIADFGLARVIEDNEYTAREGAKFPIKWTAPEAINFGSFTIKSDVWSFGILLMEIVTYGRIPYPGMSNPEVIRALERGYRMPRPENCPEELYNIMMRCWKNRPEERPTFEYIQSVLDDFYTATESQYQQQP

AKT = target: T15, AKT (Homo sapiens, UniProt Q9Y243); test: Kinase inhibition assay (33P transfer), AKT; details: Table 2, kinase inhibition class; read-out: AKT3-1
T15 construct: Kinases are expressed as either kinase domains or full length constructs; made in house
Outline: as §2

Lck = target: T16, Lck (Homo sapiens, UniProt P06239); test: Kinase inhibition assay (33P transfer), Lck; details: read-out: Lck-1
T16 construct: Kinases are expressed as either kinase domains or full length constructs; made in house
T16 sequence (P06239 whole entry, species assumed, the tested form may be a part): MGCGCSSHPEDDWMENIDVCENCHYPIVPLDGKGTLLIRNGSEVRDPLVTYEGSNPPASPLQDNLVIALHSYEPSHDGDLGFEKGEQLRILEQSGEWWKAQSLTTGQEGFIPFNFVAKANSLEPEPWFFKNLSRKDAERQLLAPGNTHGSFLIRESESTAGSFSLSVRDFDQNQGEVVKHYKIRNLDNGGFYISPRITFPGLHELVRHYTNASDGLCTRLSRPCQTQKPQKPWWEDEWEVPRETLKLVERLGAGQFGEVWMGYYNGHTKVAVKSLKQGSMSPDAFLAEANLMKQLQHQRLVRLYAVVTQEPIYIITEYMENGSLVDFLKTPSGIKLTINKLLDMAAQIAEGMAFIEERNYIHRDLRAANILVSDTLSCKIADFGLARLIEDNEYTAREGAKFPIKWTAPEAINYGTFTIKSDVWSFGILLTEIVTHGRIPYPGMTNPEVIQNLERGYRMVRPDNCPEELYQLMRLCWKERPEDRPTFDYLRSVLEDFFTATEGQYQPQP
Outline: as §2

ErbB4 = target: T17, ErbB4 (Homo sapiens, UniProt Q15303); test: Kinase inhibition assay (33P transfer), ErbB4; details: read-out: ErbB4-1
T17 construct: Kinases are expressed as either kinase domains or full length constructs; made in house

Tek = target: T18, Tek (Homo sapiens, UniProt Q02763); test: Kinase inhibition assay (33P transfer), Tek; details: read-out: Tek-1
T18 construct: Kinases are expressed as either kinase domains or full length constructs; made in house
Outline: as §1

Itk = target: T19, Itk (Homo sapiens, UniProt Q08881); test: Kinase inhibition assay (33P transfer), Itk; details: read-out: Itk-1
T19 construct: Kinases are expressed as either kinase domains or full length constructs; made in house
T19 sequence (Q08881 1-620): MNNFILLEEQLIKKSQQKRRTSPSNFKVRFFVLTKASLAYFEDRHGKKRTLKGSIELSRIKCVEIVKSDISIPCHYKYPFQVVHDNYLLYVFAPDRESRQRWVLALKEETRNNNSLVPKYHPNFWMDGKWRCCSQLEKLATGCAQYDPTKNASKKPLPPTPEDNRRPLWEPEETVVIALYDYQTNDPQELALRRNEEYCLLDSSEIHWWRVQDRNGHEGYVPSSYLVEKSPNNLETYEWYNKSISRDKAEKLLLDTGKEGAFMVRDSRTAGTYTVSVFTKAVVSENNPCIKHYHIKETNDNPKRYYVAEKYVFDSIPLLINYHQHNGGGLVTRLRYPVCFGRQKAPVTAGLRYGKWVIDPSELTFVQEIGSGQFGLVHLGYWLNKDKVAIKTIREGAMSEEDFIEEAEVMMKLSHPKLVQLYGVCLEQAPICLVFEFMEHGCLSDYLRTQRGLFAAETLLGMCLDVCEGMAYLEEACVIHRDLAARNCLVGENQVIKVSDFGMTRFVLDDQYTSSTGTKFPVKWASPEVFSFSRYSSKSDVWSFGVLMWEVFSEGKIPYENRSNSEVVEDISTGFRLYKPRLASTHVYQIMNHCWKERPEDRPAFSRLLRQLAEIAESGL
Outline: as §1

| SMILES | IC50 (EGFR) | IC50 (FGFR1) | IC50 (Zap-70) | IC50 (Flt-1) | IC50 (Ret-1) | IC50 (Lyn) | IC50 (Src) | IC50 (Fyn) | IC50 (Kdr) | IC50 (IGFR-1) | IC50 (c-Met) | IC50 (ErbB2) | IC50 (PDGFRB) | IC50 (Hck-1) | IC50 (AKT) | IC50 (Lck) | IC50 (ErbB4) | IC50 (Tek) | IC50 (Itk) |
| --- | --- | --- | --- | --- | --- | --- | --- | --- | --- | --- | --- | --- | --- | --- | --- | --- | --- | --- | --- |
| COc1cc(Nc2ncnc(-c3cccnc3NCc3ccccc3F)n2)cc(OC)c1OC [Compound 1087] | > 9.73 µM | 7.57 to 9.73 µM | > 9.73 µM | > 9.73 µM | 0.865 to 5.19 µM | > 9.73 µM | > 9.73 µM | > 9.73 µM | 0.865 to 5.19 µM | > 9.73 µM | > 9.73 µM | > 9.73 µM | 5.19 to 7.57 µM | > 9.73 µM | > 9.73 µM | 5.19 to 7.57 µM | > 9.73 µM | > 9.73 µM | > 9.73 µM |
| COc1cc(Nc2ncnc(Nc3cccc4ccccc34)n2)cc(OC)c1OCCN1CCOCC1 [Compound 1041] | < 0.796 µM | 0.796 to 4.78 µM | > 8.95 µM | 4.78 to 6.96 µM | 0.796 to 4.78 µM | < 0.796 µM | < 0.796 µM | 0.796 to 4.78 µM | < 0.796 µM | 0.796 to 4.78 µM | > 8.95 µM | < 0.796 µM | < 0.796 µM | 0.796 to 4.78 µM | > 8.95 µM | < 0.796 µM | 0.796 to 4.78 µM | 0.796 to 4.78 µM | 0.796 to 4.78 µM |
| COc1cc(Nc2ncnc(-n3c(NCc4cccc(C)c4)nc4ccccc43)n2)cc(OC)c1OC [Compound 515] | > 9.04 µM | < 0.804 µM | > 9.04 µM | 0.804 to 4.82 µM | < 0.804 µM | > 9.04 µM | > 9.04 µM | > 9.04 µM | < 0.804 µM | > 9.04 µM | > 9.04 µM | > 9.04 µM | < 0.804 µM | > 9.04 µM | > 9.04 µM | < 0.804 µM | > 9.04 µM | 7.03 to 9.04 µM | > 9.04 µM |
| COc1cc(Nc2ncnc(-n3c(NCc4ccc(Cl)cc4)nc4ccccc43)n2)cc(OC)c1OC [Compound 944] | > 8.69 µM | 0.772 to 4.63 µM | > 8.69 µM | 0.772 to 4.63 µM | < 0.772 µM | 4.63 to 6.76 µM | > 8.69 µM | > 8.69 µM | < 0.772 µM | 6.76 to 8.69 µM | > 8.69 µM | > 8.69 µM | 0.772 to 4.63 µM | > 8.69 µM | > 8.69 µM | > 8.69 µM | > 8.69 µM | > 8.69 µM | > 8.69 µM |
| COc1cc(Nc2ncnc(-n3c(=O)[nH]c4ccccc43)n2)cc(OC)c1OCCN1CCOCC1 [Compound 1040] | 4.86 to 7.09 µM | 0.81 to 4.86 µM | > 9.12 µM | 0.81 to 4.86 µM | 4.86 to 7.09 µM | > 9.12 µM | 0.81 to 4.86 µM | 0.81 to 4.86 µM | < 0.81 µM | 7.09 to 9.12 µM | > 9.12 µM | 4.86 to 7.09 µM | < 0.81 µM | > 9.12 µM | > 9.12 µM | 0.81 to 4.86 µM | 4.86 to 7.09 µM | > 9.12 µM | 0.81 to 4.86 µM |
